# Data reported in patent US4853401A, “Spiro-hydantoins as aldose reductase inhibitors” (priority 1987, dated 1989).
# Key:
# [1] = tested on: sorbitol accumulation in crystalline lenses; assay: Effect of in vivo doses on sorbitol accumulation in crystalline lenses of diabetic rats; parameters: species or system Sprague Dawley rats
# From the text: (§1) 2.2 Effect of "in vivo" doses on sorbitol accumulation in sciatic nerves and crystalline lenses of diabetic rats:
# (§2) Estimates were made of the effects of the products on the proportion of plasma glucose and the sorbitol content of the crystalline lenses and sciatic nerves of rats.
# [2] = tested on: accumulation of sorbitol in the crystalline lenses; assay: Preventive effect of single dose: sorbitol in crystalline lenses; format: in vivo, Sprague Dawley rats; conditions: for Accumulation of sorbitol in crystalline lenses, treated: 10 mg/kg oral
# Description: 2.3. In vivo effects of a single dose of compound No. 2 (CP 3192 AR) on the variation in the proportion of plasma glucose and the accumulation of sorbitol in the crystalline lenses and sciatic nerves of diabetic rats.
# 2.3.1. Preventive effect. CP 3192 AR was administered simultaneously with the induction of diabetes. The experiment was performed on 33 male Sprague Dawley rats weighing about 200 g.
# At time 0 hours, 3 rats were sacrificed and used as non-diabetic controls. 30 fats fasted the previous day were made diabetic by an intraperitoneal injection of streptozotocin (75 mg/kg). A dose of 10 mg/kg of CP 3192 AR was simultaneously administered orally to 15 of the rats. The other 15 were given a placebo. 3 control rats and 3 rats treated with CP 3192 AR were sacrificed 2, 4, 8, 24 and 48 hours after induction of diabetes.
# An estimate was made of the effects of the product on the proportion of plasma glucose and the sorbitol content of the crystalline lenses and sciatic nerves.
# [3] = Curative effect of single dose: plasma glucose; format: in vivo, Sprague Dawley rats; conditions: for Plasma glucose, treated: 10 mg/kg oral 24 h after diabetes induction
# Description: 2.3.2. Curative effect: CP 3192 AR was administered 24 hours after induction of diabetes.
# As before, the experiment was made on 33 male Sprague Dawley rats weighing about 200 g. The 33 rats, which had been fasted the previous day, were made diabetic by an intraperitoneal injection of streptozotocin (75 mg/kg).
# 24 hours after induction of diabetes, 3 rats were sacrificed and used as diabetic controls. A dose of 10 mg/kg of CP 3192 AR was orally administered to 15 rats whereas the other 15 were given the excipient without an active product. 3 control rats and 3 rats treated with CP 3192 AR were sacrificed 2, 4, 8, 24 and 48 hours after administration of the product.
# Estimates were made of the effects of the product on the proportion of plasma glucose and the sorbitol content of the crystalline lenses and sciatic nerves of rats made diabetic by streptozotocin.
# [4] = tested on: sorbitol accumulation in sciatic nerves; assay: Effect of in vivo doses on sorbitol accumulation in sciatic nerves of diabetic rats; parameters: species or system Sprague Dawley rats
# From the text: as §1, §2
# mice = assay: Effect on behaviour (Irwin method), side effects; format: in vivo
# Description: The effect on behaviour was studied by a method derived from that of S. Irwin (Gordon Res. Conf. on Medicinal Chem., 133, 1959). The substances, suspended in 1% tragacanth mucilage, were orally administered via an intra-gastric probe to groups of 5 male mice fasted for 18 hours. The maximum tested dose was 3 000 mg/kg or 1 000 mg/kg, and smaller doses were tested if an effect has been observed.
# Behaviour was studied, 2, 4, 6 and 24 hours after treatment. Observation was continued if symptoms persisted at that time. Deaths were recorded during the 14 days after treatment. The results are given in Table II, in which the numbers of the compounds are the same as the numbers given in column 1 of Table I.
# [5] = single dose 10 mg/kg, lenses and sciatic nerves
smiles,measurement,setting,value
"CC(=O)OCN1C(=O)N(COC(C)=O)C2(C1=O)c1ccccc1-c1ccccc12 [Compound 2, bis-(1',3'-acetoxymethyl)-spiro-/fluorene-9,4'-imidazolidine/-2',5'-dione]","% inhibition of sorbitol accumulation, Crystalline lenses","[1]; 0.3 mg/kg oral at 0, 7, 24 h",3 ± 25%
same,"% inhibition of sorbitol accumulation, Crystalline lenses","[1]; 1 mg/kg oral at 0, 7, 24 h",13%
same,"% inhibition of sorbitol accumulation, Crystalline lenses","[1]; 3 mg/kg oral at 0, 7, 24 h",46%
same,"% inhibition of sorbitol accumulation, Crystalline lenses","[1]; 10 mg/kg oral at 0, 7, 24 h",66%
same,ED50,"[1]; Rattus norvegicus, 27 h, crystalline lenses, diabetic rats, oral, read-out: ED50 (dose at which measured inhibition of aldose reductase activity is 50%)",3 mg/kg
same,"therapeutic index MED/ED50, crystalline lenses",[1]; crystalline lenses,about 1 000
same,"Accumulation of sorbitol in crystalline lenses, treated",[2]; 2 h,3 ± 0 µg
same,"Accumulation of sorbitol in crystalline lenses, treated","[2]; 4 h, p < 0.005",6.3 ± 0.6 µg
same,"Accumulation of sorbitol in crystalline lenses, treated","[2]; 8 h, p < 0.05",12.3 ± 4.0 µg
same,"Accumulation of sorbitol in crystalline lenses, treated","[2]; 24 h, p < 0.05",52 ± 10.1 µg
same,"Accumulation of sorbitol in crystalline lenses, treated",[2]; 48 h,92.7 ± 18.6 µg
same,duration of effect on sorbitol accumulation,[2]; [5],at least 48 hours
same,onset of effect on sorbitol accumulation,[2]; [5],observed as soon as soribol began to accumulate
same,"Plasma glucose, treated",[3]; 2 h,406 ± 28 mg/100 ml
same,"Plasma glucose, treated",[3]; 4 h,459 ± 73 mg/100 ml
same,"Plasma glucose, treated",[3]; 8 h,575 ± 14 mg/100 ml
same,"Plasma glucose, treated",[3]; 24 h,478 ± 83 mg/100 ml
same,"Plasma glucose, treated",[3]; 48 h,456 ± 117 mg/100 ml
same,effect on the proportion of plasma glucose,[3]; single dose 10 mg/kg,no effect
same,"% inhibition of sorbitol accumulation, Sciatic nerves","[4]; 0.3 mg/kg oral at 0, 7, 24 h",42 ± 9%
same,"% inhibition of sorbitol accumulation, Sciatic nerves","[4]; 1 mg/kg oral at 0, 7, 24 h",40 ± 17%
same,"% inhibition of sorbitol accumulation, Sciatic nerves","[4]; 3 mg/kg oral at 0, 7, 24 h",68 ± 11%
same,"% inhibition of sorbitol accumulation, Sciatic nerves","[4]; 10 mg/kg oral at 0, 7, 24 h",79 ± 9%
same,ED50,"[4]; Rattus norvegicus, 27 h, sciatic nerves, diabetic rats, oral, read-out: ED50 (dose at which measured inhibition of aldose reductase activity is 50%)",1 mg/kg
same,"therapeutic index MED/ED50, sciatic nerves",[4]; sciatic nerves,above 3 000
same,mutagenic effect,Ames test,does not have a mutagenic effect
same,side effect observed,mice; dose of 3000 mg/kg,no side effect was observed
same,MED (minimum dose at which a side effect is observed),"mice; mice, oral",> 3 000 mg/kg
